The values that follow come from patent US9593097B2, “Axl inhibitors” (Pfizer Inc., priority 2014, dated 2017).

Experiment [1] deals with Human wild-type receptor tyrosine kinase protein Axl (residues 505-811) (Homo sapiens (Human), UniProt P30530). To be noted: read-out: ENZYME AXL KI; Table 4B.
In experiment [2] the target is Axl phosphorylation in 293MSR-AxlWT6 cells (Homo sapiens (Human), UniProt P30530). Nature of the experiment: Cellular Axl phosphorylation ELISA assay (Gas6-stimulated 293MSR-AxlWT6 cells). The experiment is classed as cell-based. To be noted: read-out: CELL AXL IC50. The protocol:
Cellular Axl Phosphorylation ELISA Assay
After 6-7 hrs in tissue culture incubator at 37° C. 5% CO2, medium was removed, serum-free medium was added (with 0.04% bovine serum albumin) and plates were returned to incubator where they remained overnight. […] Media was then removed and lysis buffer was added to wells and shaken at 4° C. for 30 min to generate protein lysates. Subsequently, phosphorylation of Axl was assessed by a sandwich ELISA method using a DuoSet IC Human Phospho-Axl ELISA assay kit (R&D System), an immobilized mouse anti-human Axl antibody and an anti-phospho-tyrosine-HRP antibody as a detection antibody. Antibody-coated plates were (a) incubated in presence of protein lysates at room temperature for 2 hrs, (b) washed seven times in 0.1% Tween 20 in PBS, (c) incubated with secondary antibody (a horseradish peroxidase-conjugated […]) for 2 hrs, (d) washed seven times again, (e) TMB peroxidase substrate (Bio-Rad) was added to initiate a colorimetric reaction and stopped by adding 0.2 N H2SO4, and (f) measured at OD 450 nm using a spectrophotometer. IC50 values were calculated by concentration-response curve fitting using a four-parameter analytic method and reported in μM.
For Table 4B, IC50 values were calculated by concentration-response curve fitting using a four-parameter analytic method and reported in nM.

Like-named read-outs stand apart in the source and are kept apart here.

Axl phosphorylation in 293MSR-AxlWT6 cells, sequence (P30530 26-894): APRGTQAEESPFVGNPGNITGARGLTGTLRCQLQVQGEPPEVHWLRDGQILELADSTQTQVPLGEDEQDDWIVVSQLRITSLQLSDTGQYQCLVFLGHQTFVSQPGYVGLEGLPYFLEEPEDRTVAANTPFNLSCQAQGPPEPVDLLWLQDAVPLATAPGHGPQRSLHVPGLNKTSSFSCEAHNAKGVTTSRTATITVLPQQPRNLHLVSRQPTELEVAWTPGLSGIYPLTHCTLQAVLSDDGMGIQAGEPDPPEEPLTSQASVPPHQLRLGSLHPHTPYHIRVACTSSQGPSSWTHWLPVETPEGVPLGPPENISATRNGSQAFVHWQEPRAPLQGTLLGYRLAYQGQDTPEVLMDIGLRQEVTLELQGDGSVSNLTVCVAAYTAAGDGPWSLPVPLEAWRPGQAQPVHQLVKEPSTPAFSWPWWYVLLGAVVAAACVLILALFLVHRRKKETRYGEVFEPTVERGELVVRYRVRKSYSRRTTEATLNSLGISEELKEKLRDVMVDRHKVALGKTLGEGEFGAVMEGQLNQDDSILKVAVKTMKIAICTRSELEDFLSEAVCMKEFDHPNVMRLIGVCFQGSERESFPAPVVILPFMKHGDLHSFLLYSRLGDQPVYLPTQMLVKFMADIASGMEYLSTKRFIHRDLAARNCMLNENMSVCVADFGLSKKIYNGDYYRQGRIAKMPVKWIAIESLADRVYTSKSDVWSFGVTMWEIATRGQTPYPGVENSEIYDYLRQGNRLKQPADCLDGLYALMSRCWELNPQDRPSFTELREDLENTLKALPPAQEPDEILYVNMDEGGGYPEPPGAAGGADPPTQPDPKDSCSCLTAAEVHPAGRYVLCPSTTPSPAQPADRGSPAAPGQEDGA
Human wild-type receptor tyrosine kinase protein Axl (residues 505-811), sequence (P30530 505-811): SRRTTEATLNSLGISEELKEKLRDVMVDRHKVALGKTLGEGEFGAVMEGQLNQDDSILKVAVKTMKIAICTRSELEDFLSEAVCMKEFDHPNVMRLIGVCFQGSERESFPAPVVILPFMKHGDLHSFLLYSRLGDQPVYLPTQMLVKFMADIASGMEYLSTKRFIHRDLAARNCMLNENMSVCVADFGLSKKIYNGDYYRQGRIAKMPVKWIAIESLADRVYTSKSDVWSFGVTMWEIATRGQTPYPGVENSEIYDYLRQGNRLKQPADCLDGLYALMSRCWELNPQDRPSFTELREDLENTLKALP

A word on the Ki: it is a measure of affinity in units of concentration, obtained from inhibition or displacement. Broadly, the IC50 is the midpoint of a concentration-inhibition curve. As for `COC[C@@H](C)Oc1nc(C(=O)NC2CCC2)nc(N2CCC(c3c[nH]c4nccc(OC)c34)CC2)n1` [Example 502, N-cyclobutyl-4-{[(2R)-1-methoxypropan-2-yl]oxy}-6-[4-(4-methoxy-1H-pyrrolo[2,3-b]pyridin-3-yl)piperidin-1-yl]-1,3,5-triazine-2-carboxamide], the Ki in experiment [1] is less than 0.082 nM. Also, the IC50 in experiment [2] (Table 4B) stood at 0.132 nM.
Regarding `COc1ccnc2[nH]nc(C3CCN(c4nc(OC[C@H]5C[C@H]5C#N)nc(C(=O)NC5CCC5)n4)CC3)c12` [Example 501, 4-{[(1S,2R)-2-cyanocyclopropyl]methoxy}-N-cyclobutyl-6-[4-(4-methoxy-1H-pyrazolo[3,4-b]pyridin-3-yl)piperidin-1-yl]-1,3,5-triazine-2-carboxamide], in experiment [1], the Ki was less than 0.412 nM. For the same molecule, the IC50 in experiment [2] (Table 4B) came to 1.07 nM.
For `C[C@H](NC(=O)c1nc(OCC2CC2)nc(N2CCC(COc3cc(-c4cn(C)cn4)cnc3N)CC2)n1)C(F)(F)F` [Example 391, 4-[4-({[2-amino-5-(1-methyl-1H-imidazol-4-yl)pyridin-3-yl]oxy}methyl)piperidin-1-yl]-6-(cyclopropylmethoxy)-N-[(2S)-1,1,1-trifluoropropan-2-yl]-1,3,5-triazine-2-carboxamide] the same measures were less than 0.013 nM and 0.143 nM.
For `COc1ccnc2[nH]nc(C3CCN(c4cc(C(=O)N[C@H](C)CO)nc(OCc5ccccc5)n4)CC3)c12` [Example 415, 2-(benzyloxy)-N-[(2R)-1-hydroxypropan-2-yl]-6-[4-(4-methoxy-1H-pyrazolo[3,4-b]pyridin-3-yl)piperidin-1-yl]pyrimidine-4-carboxamide] the same measures were less than 0.013 nM and 0.052 nM.
As for `C[C@H](CO)NC(=O)c1cc(N2CCC(c3n[nH]c4ncccc34)CC2)nc(OC[C@@H]2CCOC2)n1` [Example 382, N-[(2R)-1-hydroxypropan-2-yl]-6-[4-(1H-pyrazolo[3,4-b]pyridin-3-yl)piperidin-1-yl]-2-[(3R)-tetrahydrofuran-3-ylmethoxy]pyrimidine-4-carboxamide], the IC50 in experiment [2] (Table 4A) worked out at 154 nM.
Same read-out and setting: with `CN(C)CCOc1ccc(C(N)=O)nc1C1CCN(c2cc(C(=O)NC3CCC3)nc(OC[C@@H]3C[C@@H]3C#N)n2)CC1` [Example 37, 6-(4-{6-carbamoyl-3-[2-(dimethylamino)ethoxy]pyridin-2-yl}piperidin-1-yl)-2-{[(1R,2S)-2-cyanocyclopropyl]methoxy}-N-cyclobutyl-pyrimidine-4-carboxamide] the figure was 242 nM; with `COC[C@@H](C)Oc1nc(C(=O)NCC(C)(C)O)cc(N2CCC(c3ccc(N)c(C(N)=O)n3)CC2)n1` [Example 8, 6-[4-(5-amino-6-carbamoylpyridin-2-yl)piperidin-1-yl]-N-(2-hydroxy-2-methylpropyl)-2-{[(2R)-1-methoxypropan-2-yl]oxy}pyrimidine-4-carboxamide], 77.9 nM.
On to `COc1ccnc2[nH]cc(C3CCN(c4cc(C(=O)N[C@H](C)CO)nc(OC[C@H]5CCCO5)n4)CC3)c12` [Example 459, N-[(2R)-1-hydroxypropan-2-yl]-6-[4-(4-methoxy-1H-pyrrolo[2,3-b]pyridin-3-yl)piperidin-1-yl]-2-[(2R)-tetrahydrofuran-2-ylmethoxy]pyrimidine-4-carboxamide], for which, in experiment [1], the Ki was less than 0.013 nM. Besides, the half-inhibitory concentration (IC50) in experiment [2] (Table 4B) came out at 0.272 nM.
With `N#CC1(COc2nc(C(=O)NC34CC(C3)C4)nc(N3CCC(c4n[nH]c5ncccc45)CC3)n2)CC1` [Example 59, N-(bicyclo[1.1.1]pent-1-yl)-4-[(1-cyanocyclopropyl)methoxy]-6-[4-(1H-pyrazolo[3,4-b]pyridin-3-yl)piperidin-1-yl]-1,3,5-triazine-2-carboxamide], the concentration for half-maximal inhibition (IC50) in experiment [2] (Table 4A) is 2.74 nM.
Regarding `CN(C)CCOc1ccc(C(N)=O)nc1C1CCN(c2cc(C(=O)NC3CCC3)nc(OCC3CC3(F)F)n2)CC1` (centres unmarked) [Example 39, 6-(4-{6-carbamoyl-3-[2-(dimethylamino)ethoxy]pyridin-2-yl}piperidin-1-yl)-N-cyclobutyl-2-[(2,2-difluoro-cyclopropyl)methoxy] pyrimidine-4-carboxamide], the IC50 in experiment [2] (Table 4A) is 83.8 nM.
In the case of `N#C[C@@H]1C[C@@H]1COc1nc(C(=O)NCC2CC2)nc(N2CCC(c3ccc(N)c(C(N)=O)n3)CC2)n1` [Example 87, 4-[4-(5-amino-6-carbamoylpyridin-2-yl)piperidin-1-yl]-6-{[(1S,2R)-2-cyanocyclopropyl]methoxy}-N-(cyclopropyl-methyl)-1,3,5-triazine-2-carboxamide], in experiment [2] (Table 4A), the IC50 was determined as 66 nM.
On the same count and under the same terms, with `C[C@H](CO)NC(=O)c1cc(N2CCC(c3c[nH]c4ncccc34)CC2)nc(OC[C@H]2C[C@H]2C#N)n1` [Example 51, 2-{[(1S,2R)-2-cyanocyclopropyl]methoxy}-N-[(2R)-1-hydroxypropan-2-yl]-6-[4-(1H-pyrrolo[2,3-b]pyridin-3-yl)piperidin-1-yl]pyrimidine-4-carboxamide] the figure was 7.89 nM; with `C[C@@H](NC(=O)c1cc(N2CCC(c3ccc(N)c(C(N)=O)n3)CC2)nc(OCC2CC2(F)F)n1)C(C)(C)O` (single isomer, unassigned) [Example 15], 8.36 nM; with `N#C[C@@H]1C[C@@H]1COc1nc(C(=O)NC23CC(C2)C3)cc(N2CCC(c3n[nH]c4ncc(OCCO)cc34)CC2)n1` [Example 81, N-(bicyclo[1.1.1]pent-1-yl)-2-{[(1S,2R)-2-cyanocyclopropyl]methoxy}-6-{4-[5-(2-hydroxyethoxy)-1H-pyrazolo[3,4-b]pyridin-3-yl]piperidin-1-yl}pyrimidine-4-carboxamide], 5.21 nM.
Take `COC[C@@H](C)Oc1nc(C(=O)NC23CC(C2)C3)nc(N2CCC(c3c[nH]c4nccc(OC)c34)CC2)n1` (single isomer, unassigned) [Example 505]: the Ki in experiment [1] was less than 0.082 nM. In addition, the IC50 in experiment [2] (Table 4B) was 0.409 nM.
As for `COc1ccnc2[nH]cc(C3CCN(c4nc(OC[C@H]5C[C@H]5C#N)nc(C(=O)NC56CC(C5)C6)n4)CC3)c12` (single isomer, unassigned) [Example 504], the Ki in experiment [1] is less than 0.082 nM. Besides, the half-maximal inhibitory concentration (IC50) in experiment [2] (Table 4B) was determined as 0.125 nM.
`CS(=O)(=O)COc1cnc2[nH]nc(C3CCN(c4cc(C(=O)NC56CC(C5)C6)nc(OC[C@H]5C[C@H]5C#N)n4)CC3)c2c1` [Example 77, N-(bicyclo[1.1.1]pent-1-yl)-2-{[(1S,2R)-2-cyanocyclopropyl]methoxy}-6-(4-{5-[(methylsulfonyl)methoxy]-1H-pyrazolo[3,4-b]pyridin-3-yl}piperidin-1-yl)pyrimidine-4-carboxamide]: the IC50 in experiment [2] (Table 4A) amounted to 42.8 nM.
As for `COc1ccnc2[nH]cc(C3CCN(c4cc(C(=O)N[C@H](C)CO)nc(OC[C@H]5C[C@H]5C#N)n4)CC3)c12` [Example 377, 2-{[(1S,2R)-2-cyanocyclopropyl]methoxy}-N-[(2R)-1-hydroxypropan-2-yl]-6-[4-(4-methoxy-1H-pyrrolo[2,3-b]pyridin-3-yl)piperidin-1-yl]pyrimidine-4-carboxamide], the IC50 in experiment [2] (Table 4A) came to 0.4 nM.
Consider `COC[C@@H](C)Oc1nc(C(=O)NC2CCC2)nc(N2CCC(c3ccc(N)c(C(N)=O)n3)CC2)n1` [Example 40, 4-[4-(5-amino-6-carbamoylpyridin-2-yl)piperidin-1-yl]-N-cyclobutyl-6-{[(2R)-1-methoxypropan-2-yl]oxy}-1,3,5-triazine-2-carboxamide], for which the IC50 in experiment [2] (Table 4A) came to 5.77 nM.
Same read-out and setting: with `COCCNC(=O)c1cc(N2CCC(c3ccc(N)c(C(N)=O)n3)CC2)nc(O[C@H](C)COC)n1` [Example 7, 6-[4-(5-amino-6-carbamoylpyridin-2-yl)piperidin-1-yl]-N-(2-methoxyethyl)-2-{[(2R)-1-methoxypropan-2-yl]oxy}pyrimidine-4-carboxamide] the figure was 14.9 nM; with `CCNC(=O)c1cc(N2CCC(COc3cc(-c4cnn(C)c4)cnc3N)CC2)nc(OCC(C)O)n1` (centres unmarked) [Example 45, 6-[4-({[2-amino-5-(1-methyl-1H-pyrazol-4-yl)pyridin-3-yl]oxy}methyl)piperidin-1-yl]-N-ethyl-2-(2-hydroxypropoxy) pyrimidine-4-carboxamide], 235 nM.
As to `N#C[C@@H]1C[C@@H]1COc1nc(C(=O)NC23CC(C2)C3)cc(N2CC[C@H](c3n[nH]c4ncccc34)[C@H](F)C2)n1` (single isomer, unassigned) [Example 79], the IC50 in experiment [2] (Table 4A) was found to be 56.4 nM.
On the same count and under the same terms, with `N#C[C@@H]1C[C@@H]1COc1nc(C(=O)NC23CC(C2)C3)cc(N2CCC(COc3cncnc3N)C(F)(F)C2)n1` (single isomer, unassigned) [Example 62] the figure was 38.7 nM.
The same measure, in the same setting: with `N#CC1(COc2nc(C(=O)NC34CC(C3)C4)nc(N3CCC(COc4cccnc4N)CC3)n2)CC1` [Example 90, 4-(4-{[(2-aminopyridin-3-yl)oxy]methyl}piperidin-1-yl)-N-(bicyclo[1.1.1]pent-1-yl)-6-[(1-cyanocyclopropyl)methoxy]-1,3,5-triazine-2-carboxamide] the figure was 6.98 nM; with `COC[C@@H](C)Oc1nc(C(=O)N[C@H](C)CN(C)C)cc(N2CCC(c3ccc(N)c(C(N)=O)n3)CC2)n1` (single isomer, unassigned) [Example 36], 87.4 nM.
